Source: ChEMBL document CHEMBL4834431, “Design of Dimeric Bile Acid Derivatives as Potent and Selective Human NTCP Inhibitors” (J Med Chem, 2021)
The source made the active and inactive calls. The rule behind the calls is not given here.

What was measured:
[1] = system: Hepatitis B virus; experiment: Antiviral activity against HBV infected in human HepG2-NTCP cells assessed as reduction in HBeAg secretion incubated for 24 hrs followed replacement with fresh medium and measured at day 5 post infection by ELISA; type: functional, organism-based
[2] = system: Hepatitis B virus; experiment: Antiviral activity against HBV infected in human HepG2-NTCP cells assessed as reduction in HBeAg secretion at 111 to 1000 nM incubated for 24 hrs followed by replacement with fresh medium and measured at day 5 post infection by ELISA; type: functional, organism-based; settings: dose 111-1000 nM
[3] = system: Hepatitis B virus; experiment: Antiviral activity against HBV infected in human HepG2-NTCP cells assessed as reduction in intracellular HBV RNA level at 1 uM by qPCR analysis; type: functional, organism-based
[4] = system: Hepatitis B virus; experiment: Antiviral activity against HBV infected in human HepG2-NTCP cells assessed as reduction in intracellular accumulation of HBcAg at 1 uM by immunostaining based fluorescence microscopic analysis; type: functional, organism-based
[5] = system: Hepatitis B virus; experiment: Antiviral activity against HBV infected in human HepG2-NTCP cells assessed as reduction in intracellular accumulation of HBsAg at 1 uM by immunostaining based fluorescence microscopic analysis; type: functional, organism-based
[6] = system: Hepatitis delta virus; experiment: (§1) Antiviral activity against HDV infected in human HepG2-NTCP cells assessed as reduction in intranuclear accumulation of HDV delta antigen at 5 uM incubated for 24 hrs followed by replacement with fresh medium and measured at day 5 post infection by DAPI staining based confocal microscopic analysis (reference value: 12.1 %); type: functional; design: scale not given: the % may be the effect or the level left
[7] = system: Hepatitis B virus; experiment: Antiviral activity against HBV infected in human HepG2-NTCP cells assessed as reduction in HBeAg secretion at 1 uM preincubated with compound followed by viral infection by ELISA; type: functional, organism-based
[8] = system: Hepatitis B virus; experiment: Antiviral activity against HBV infected in human HepG2-NTCP cells assessed as reduction in HBeAg secretion at 1 uM compound added along with viral infection by ELISA; type: functional, organism-based
[9] = system: Hepatitis B virus; experiment: Antiviral activity against HBV infected in human HepG2-NTCP cells assessed as reduction in HBeAg secretion at 1 uM pre-infected with virus followed by compound addition by ELISA; type: functional, organism-based
[10] = target: T1, Hepatic sodium/bile acid cotransporter (Homo sapiens, UniProt Q14973); experiment: Inhibition of FITC-labeled HBV Pre-S1 polypeptide binding to human NTCP expressed in HepG2 cells after 2 to 3 hrs by confocal microscopic analysis; type: cell-based; settings: time 2-3 hrs
T1 sequence (Q14973 whole entry): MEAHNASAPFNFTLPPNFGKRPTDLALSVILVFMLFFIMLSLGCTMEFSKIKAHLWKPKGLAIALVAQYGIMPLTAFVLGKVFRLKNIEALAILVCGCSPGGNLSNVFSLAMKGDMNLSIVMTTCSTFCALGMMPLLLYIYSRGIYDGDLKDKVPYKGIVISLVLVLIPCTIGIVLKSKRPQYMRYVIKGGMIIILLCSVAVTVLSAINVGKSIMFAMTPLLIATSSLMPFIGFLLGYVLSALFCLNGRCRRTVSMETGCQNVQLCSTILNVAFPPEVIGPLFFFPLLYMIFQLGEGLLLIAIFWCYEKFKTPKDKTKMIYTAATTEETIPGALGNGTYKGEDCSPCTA

[11] = system: HepG2; experiment: Cytotoxicity against human HepG2 cells expressing NTCP assessed as reduction in cell viability at 10 uM after 48 hrs by alamar blue assay; type: cell-based; settings: hepg2, 48 h
[12] = system: Hepatocyte; experiment: Cytotoxicity against primary tupaia hepatocytes expressing NTCP assessed as reduction in cell viability at 100 uM after 48 hrs by Cell-Titer Glo assay; type: cell-based; settings: scandentia
[13] = system: HepG2; experiment: Effect on NTCP surface expression in human HepG2-NTCP cells assessed as reduction in NTCP surface expression level after 2 hrs by immunostaining based assay; type: functional, cell-based
[14] = target: T1, Hepatic sodium/bile acid cotransporter; experiment: Inhibition of human NTCP-mediated [3H]-TCA uptake expressed in human HepG2 cells at 2 uM; type: cell-based; settings: hepg2, 2 µM
[15] = target: T2, Ileal sodium/bile acid cotransporter (Homo sapiens, UniProt Q12908); experiment: Inhibition of human ASBT-mediated [3H]-TCA uptake expressed in human HepG2 cells at 2 uM; type: cell-based; settings: hepg2, 2 µM
T2 sequence (Q12908 whole entry): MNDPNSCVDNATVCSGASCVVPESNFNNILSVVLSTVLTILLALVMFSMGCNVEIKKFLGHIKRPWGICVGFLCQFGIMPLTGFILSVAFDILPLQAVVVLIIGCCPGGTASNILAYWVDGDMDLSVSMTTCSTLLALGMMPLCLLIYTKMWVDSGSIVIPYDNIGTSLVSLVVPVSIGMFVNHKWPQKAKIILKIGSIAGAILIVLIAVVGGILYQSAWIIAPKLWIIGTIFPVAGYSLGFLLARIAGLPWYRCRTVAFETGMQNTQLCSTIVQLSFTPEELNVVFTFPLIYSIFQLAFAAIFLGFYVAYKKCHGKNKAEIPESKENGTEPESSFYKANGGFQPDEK

[16] = target: T1, Hepatic sodium/bile acid cotransporter; experiment: Inhibition of human NTCP-mediated [3H]-Estrone sulfate uptake expressed in human HepG2 cells at 2 uM; type: cell-based; settings: hepg2, 2 µM
[17] = target: T3, Solute carrier organic anion transporter family member 1B1 (Homo sapiens, UniProt Q9Y6L6); experiment: Inhibition of human OATP1B1-mediated [3H]-Estrone sulfate uptake expressed in human HepG2 cells at 2 uM; type: cell-based; settings: hepg2, 2 µM
T3 sequence (Q9Y6L6 whole entry): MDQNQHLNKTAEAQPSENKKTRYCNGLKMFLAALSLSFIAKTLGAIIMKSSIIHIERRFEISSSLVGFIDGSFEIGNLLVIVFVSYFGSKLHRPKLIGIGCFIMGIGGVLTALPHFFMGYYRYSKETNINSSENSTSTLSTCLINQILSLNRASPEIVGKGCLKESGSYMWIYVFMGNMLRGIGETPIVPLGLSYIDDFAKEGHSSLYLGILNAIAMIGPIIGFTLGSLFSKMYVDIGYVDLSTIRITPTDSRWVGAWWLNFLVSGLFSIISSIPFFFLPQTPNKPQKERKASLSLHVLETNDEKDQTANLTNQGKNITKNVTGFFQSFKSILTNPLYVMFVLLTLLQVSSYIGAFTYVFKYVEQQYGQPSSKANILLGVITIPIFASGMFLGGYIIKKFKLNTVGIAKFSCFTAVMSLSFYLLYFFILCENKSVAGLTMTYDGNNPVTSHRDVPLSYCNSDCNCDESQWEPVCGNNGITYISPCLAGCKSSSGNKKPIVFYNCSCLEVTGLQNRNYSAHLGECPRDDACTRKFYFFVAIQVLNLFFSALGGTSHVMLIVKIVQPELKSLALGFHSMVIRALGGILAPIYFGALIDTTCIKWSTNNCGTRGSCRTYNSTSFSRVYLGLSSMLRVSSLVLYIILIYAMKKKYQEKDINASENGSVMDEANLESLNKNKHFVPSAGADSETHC

[18] = system: Hepatitis B virus; experiment: Antiviral activity against HBV infected in human HepG2-NTCP cells assessed as reduction in HBeAg secretion preincubated for 2 hrs followed by viral infection by ELISA; type: functional, organism-based
[19] = target: T1, Hepatic sodium/bile acid cotransporter; experiment: Inhibition of human NTCP-mediated [3H]-TCA uptake expressed in human HepG2 cells; type: cell-based; settings: human, hepg2
[20] = system: HepG2; experiment: Inhibition of monkey NTCP-mediated [3H]-TCA uptake expressed in human HepG2 cells; type: cell-based; settings: Macaca mulatta
[21] = target: T4, Hepatic sodium/bile acid cotransporter (Mus musculus, UniProt O08705); experiment: Inhibition of mouse NTCP-mediated [3H]-TCA uptake expressed in human HepG2 cells; type: cell-based
T4 sequence (O08705 whole entry): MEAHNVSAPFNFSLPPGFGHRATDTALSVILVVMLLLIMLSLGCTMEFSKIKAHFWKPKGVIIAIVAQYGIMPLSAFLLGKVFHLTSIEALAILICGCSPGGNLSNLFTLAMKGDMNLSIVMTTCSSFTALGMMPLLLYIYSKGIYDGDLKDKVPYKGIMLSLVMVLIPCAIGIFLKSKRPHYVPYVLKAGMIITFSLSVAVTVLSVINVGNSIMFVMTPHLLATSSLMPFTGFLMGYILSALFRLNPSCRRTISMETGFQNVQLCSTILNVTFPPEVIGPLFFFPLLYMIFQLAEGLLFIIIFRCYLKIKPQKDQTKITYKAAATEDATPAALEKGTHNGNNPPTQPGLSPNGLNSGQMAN

[22] = system: HepG2; experiment: Inhibition of tree shrew NTCP-mediated [3H]-TCA uptake expressed in human HepG2 cells; type: cell-based; settings: Scandentia
[23] = target: T1, Hepatic sodium/bile acid cotransporter; experiment: Inhibition of human NTCP-mediated NQL-064 uptake expressed in human HepG2 cells; type: cell-based
[24] = target: T4, Hepatic sodium/bile acid cotransporter; experiment: Inhibition of mouse NTCP-mediated NQL-064 uptake expressed in human HepG2 cells; type: cell-based
[25] = system: HepG2; experiment: Inhibition of monkey NTCP-mediated NQL-064 uptake expressed in human HepG2 cells; type: cell-based; settings: Macaca mulatta
[26] = system: HepG2; experiment: Inhibition of tree shrew NTCP-mediated NQ-064 uptake expressed in human HepG2 cells; type: cell-based; settings: Scandentia
[27] = Stability in mouse liver microsomes assessed as half life at 1 uM preincubated for 5 mins followed by NADPH addition and measured upto 60 mins by LC-MS analysis; type: ADME, Microsome; settings: time 65 min
[28] = Stability in mouse liver microsomes assessed as intrinsic clearance at 1 uM preincubated for 5 mins followed by NADPH addition and measured upto 60 mins by LC-MS analysis; type: ADME, Microsome; settings: time 65 min, read-out: CLH
[29] = target: T1, Hepatic sodium/bile acid cotransporter; experiment: Inhibition of human NTCP-mediated [3H]-TCA uptake expressed in human HepG2 cells in presence of 20 % FBS; type: cell-based
[30] = target: T1, Hepatic sodium/bile acid cotransporter; experiment: Inhibition of human NTCP-mediated [3H]-TCA uptake expressed in human HepG2 cells in presence of 50 % FBS; type: cell-based
[31] = target: T1, Hepatic sodium/bile acid cotransporter; experiment: Inhibition of human NTCP-mediated [3H]-TCA uptake expressed in human HepG2 cells pretreated for 2 hrs followed by [3H]-TCA addition in absence of FBS; type: cell-based
[32] = system: Hepatitis B virus; experiment: Antiviral activity against HBV infected in human HepG2-NTCP cells assessed as reduction in HBeAg secretion at 1 to 10 uM incubated for 24 hrs followed by replacement with fresh medium and measured at day 5 post infection by ELISA; type: functional, organism-based; settings: dose 1-10 µM
[33] = target: T1, Hepatic sodium/bile acid cotransporter; experiment: Inhibition of human NTCP-mediated [3H]-TCA uptake expressed in human HepG2 cells at 3.3 uM incubated for 10 mins by liquid scintillation counter analysis; type: cell-based; settings: hepg2, 10 min
[34] = system: Hepatitis B virus; experiment: Antiviral activity against HBV infected in human HepG2-NTCP cells assessed as reduction in HBeAg secretion measured at day 7 post infection by ELISA; type: functional, organism-based; settings: HepG2, 168 h
[35] = system: Hepatitis delta virus; experiment: as §1, with “at 10” for “at 5”; type: functional; design: scale not given: the % may be the effect or the level left

C[C@H](CCC(=O)NCCS(=O)(=O)O)[C@H]1CC[C@H]2[C@@H]3[C@@H](O)C[C@@H]4C[C@H](OCc5cn([C@@H]6CC[C@@]7(C)[C@@H](C6)C[C@H](O)[C@@H]6[C@@H]7CC[C@]7(C)[C@@H]([C@H](C)CCC(=O)NCCS(=O)(=O)O)CC[C@@H]67)nn5)CC[C@]4(C)[C@H]3CC[C@]12C
IC50 [1]: 0.012 µM | Activity [2]: Active | Activity [3]: Active | Activity [4]: Active | Activity [5]: Active | Activity [6]: 1.8% | Activity [7]: Active | Activity [8]: Active | Activity [9]: inactive | inhibition (INH) [10]: Active | Activity [11]: Non-Toxic | Activity [12]: Non-Toxic | Activity [13]: inactive | inhibition (INH) [14]: Active | inhibition (INH) [15]: Not Active | inhibition (INH) [16]: Active | inhibition (INH) [17]: Not Active | Activity [18]: inactive | inhibition (INH) [19]: Active | inhibition [20]: inactive | inhibition (INH) [21]: Not Active | inhibition [22]: inactive | inhibition (INH) [23]: Active | inhibition (INH) [24]: Not Active | inhibition [25]: inactive | inhibition [26]: inactive

C[C@H](CCc1cn([C@@H]2CC[C@@]3(C)[C@@H](C2)C[C@H](O)[C@@H]2[C@@H]3CC[C@]3(C)[C@@H]([C@H](C)CCC(=O)NCCS(=O)(=O)O)CC[C@@H]23)nn1)[C@H]1CC[C@H]2[C@@H]3[C@@H](O)C[C@@H]4C[C@H](O)CC[C@]4(C)[C@H]3CC[C@]12C
IC50 [1]: 0.024 µM | half-life at 1 µM [27]: 12.6 min | microsomal CLint at 1 µM [28]: 55.2 µL/min/mg | IC50 [29]: > 10 µM | IC50 [30]: > 10 µM | IC50 [31]: 0.0245 µM

CC(=O)O[C@@H]1CC[C@@]2(C)[C@@H](C1)C[C@H](O)[C@@H]1[C@@H]2CC[C@]2(C)[C@@H]([C@H](C)CCC(=O)NCCS(=O)(=O)O)CC[C@@H]12
Activity [32]: inactive | inhibition (INH) [33]: Not Active

C[C@H](CCC(=O)NCCS(=O)(=O)O)[C@H]1CC[C@H]2[C@@H]3[C@@H](O)C[C@@H]4C[C@H](O)CC[C@]4(C)[C@H]3CC[C@]12C [TAURURSODIOL]
Activity [32]: inactive | inhibition (INH) [33]: Not Active | IC50 [34]: 3 µM | Activity [35]: 7.1%
